Test results from patent US9765092B2, “Tricyclic piperidine compounds” (ACTELION PHARMACEUTICALS LTD, priority 2013, dated 2017).
pIC50: −log10 of the molar value. Like-named read-outs stand apart in the source and are kept apart here.

Target: human TPH1 (Homo sapiens (Human), UniProt P17752)
Assay: Biochemical in vitro assay using fluorescence readout (TPH1 inhibition)
[1] = human TPH1, fluorescence readout

human TPH1, sequence (P17752 whole entry): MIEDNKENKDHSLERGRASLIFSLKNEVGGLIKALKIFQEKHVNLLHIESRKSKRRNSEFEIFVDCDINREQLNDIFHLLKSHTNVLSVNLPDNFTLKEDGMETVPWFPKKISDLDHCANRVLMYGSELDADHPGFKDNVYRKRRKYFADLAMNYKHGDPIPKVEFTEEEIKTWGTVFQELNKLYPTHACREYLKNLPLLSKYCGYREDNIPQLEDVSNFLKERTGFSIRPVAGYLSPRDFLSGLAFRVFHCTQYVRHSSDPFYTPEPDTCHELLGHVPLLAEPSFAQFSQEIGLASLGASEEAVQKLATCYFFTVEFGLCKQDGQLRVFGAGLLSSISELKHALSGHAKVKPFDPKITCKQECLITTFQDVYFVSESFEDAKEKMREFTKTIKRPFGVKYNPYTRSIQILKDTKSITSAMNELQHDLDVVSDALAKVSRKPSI

## Cc1nn2c3c(nc2s1)CCN(C(=O)COc1ccc(NS(C)(=O)=O)nc1Cl)C3c1ccc(OCCO)cc1F (stereo not shown) [Example 1.84.2, N-(6-Chloro-5-(2-(5-(2-fluoro-4-(2-hydroxyethoxy)phenyl)-2-methyl-7,8-dihydro-[1,3,4]thiadiazolo[2′,3′:2,3]imidazo[4,5-c]pyridin-6(5H)-yl)-2-oxoethoxy)pyridin-2-yl)methanesulfonamide]
Full length human TPH1, 40 μM L-tryptophan, 15° C., 60 minutes, fluorescence at 540 nm, mean if determined several times
  pIC50: 7.80

## Cc1nn2c3c(nc2s1)CCN(C(=O)COc1ccc(N2CCOCC2)nc1Cl)C3c1csc(C2OCCO2)c1 (stereo not shown) [Example 1.85.1, 1-(5-(5-(1,3-dioxolan-2-yl)thiophen-3-yl)-2-methyl-7,8-dihydro-[1,3,4]thiadiazolo[2′,3′:2,3]imidazo[4,5-c]pyridin-6(5H)-yl)-2-((2-chloro-6-morpholinopyridin-3-yl)oxy)ethan-1-one]
[1]
  pIC50: 7.89

## CS(=O)(=O)Nc1ccc(OCC(=O)N2CCc3nc4scnn4c3C2c2ccc(Cl)cc2F)c(Cl)n1 (stereo not shown) [Example 2.1.1, N-(6-chloro-5-(2-(5-(4-chloro-2-fluorophenyl)-7,8-dihydro-[1,3,4]thiadiazolo[2′,3′:2,3]imidazo[4,5-c]-pyridin-6(5H)-yl)-2-oxoethoxy)pyridin-2-yl)methanesulfonamide]
[1]
  pIC50: 7.96

## N#Cc1ccc(OCC(=O)N2CCc3nc4scnn4c3C2c2ccc(Cl)cc2F)c(Cl)c1 (stereo not shown) [Example 2.1.2, 3-chloro-4-(2-(5-(4-chloro-2-fluorophenyl)-7,8-dihydro-[1,3,4]thiadiazolo[2′,3′:2,3]imidazo[4,5-c]pyridin-6(5H)-yl)-2-oxoethoxy)benzonitrile]
[1]
  pIC50: 7.51

## O=C(COc1ccc(-c2ncco2)nc1Cl)N1CCc2nc3scnn3c2C1c1ccc(Cl)cc1F (stereo not shown) [Example 2.1.3]
[1]
  pIC50: 8.10

## CCc1nn2c3c(nc2s1)CCN(C(=O)COc1ccc(NS(C)(=O)=O)nc1Cl)C3c1ccc(Cl)cc1F (stereo not shown) [Example 3.1.1, N-(6-chloro-5-(2-(5-(4-chloro-2-fluorophenyl)-2-ethyl-7,8-dihydro-[1,3,4]thiadiazolo[2′,3′:2,3]imidazo[4,5-c]-pyridin-6(5H)-yl)-2-oxoethoxy)pyridin-2-yl)methanesulfonamide]
[1]
  pIC50: 7.89

## CCc1nn2c3c(nc2s1)CCN(C(=O)COc1ccc(C#N)cc1Cl)C3c1ccc(Cl)cc1F (stereo not shown) [Example 3.1.2, 3-chloro-4-(2-(5-(4-chloro-2-fluorophenyl)-2-ethyl-7,8-dihydro-[1,3,4]thiadiazolo[2′,3′:2,3]imidazo[4,5-c]pyridin-6(5H)-yl)-2-oxoethoxy)benzonitrile]
[1]
  pIC50: 7.82

## CCc1nn2c3c(nc2s1)CCN(C(=O)COc1ccc(-c2ncco2)nc1Cl)C3c1ccc(Cl)cc1F (stereo not shown) [Example 3.1.3, 1-(5-(4-chloro-2-fluorophenyl)-2-ethyl-7,8-dihydro-[1,3,4]thiadiazolo[2′,3′:2,3]imidazo[4,5-c]pyridin-6(5H)-yl)-2-((2-chloro-6-(oxazol-2-yl)pyridin-3-yl)oxy)ethanone]
[1]
  pIC50: 7.92

## CCc1nn2c3c(nc2s1)CCN(C(=O)COc1ccc(N2CCN(C)CC2)nc1Cl)C3c1ccc(Cl)cc1F (stereo not shown) [Example 3.1.4, 1-(5-(4-chloro-2-fluorophenyl)-2-ethyl-7,8-dihydro-[1,3,4]thiadiazolo[2′,3′:2,3]imidazo[4,5-c]pyridin-6(5H)-yl)-2-((2-chloro-6-(4-methylpiperazin-1-yl)pyridin-3-yl)oxy)ethanone]
[1]
  pIC50: 8.00

## CS(=O)(=O)Nc1ccc(OCC(=O)N2CCc3nc4sc(C5CC5)nn4c3C2c2ccc(Cl)cc2F)c(Cl)n1 (stereo not shown) [Example 4.1.1, N-(6-chloro-5-(2-(5-(4-chloro-2-fluorophenyl)-2-cyclopropyl-7,8-dihydro-[1,3,4]thiadiazolo-[2′,3′:2,3]imidazo[4,5-c]pyridin-6(5H)-yl)-2-oxoethoxy)pyridin-2-yl)methanesulfonamide]
[1]
  pIC50: 7.80

## N#Cc1ccc(OCC(=O)N2CCc3nc4sc(C5CC5)nn4c3C2c2ccc(Cl)cc2F)c(Cl)c1 (stereo not shown) [Example 4.1.2, 3-chloro-4-(2-(5-(4-chloro-2-fluorophenyl)-2-cyclopropyl-7,8-dihydro-[1,3,4]thiadiazolo-[2′,3′:2,3]imidazo[4,5-c]pyridin-6(5H)-yl)-2-oxoethoxy)benzonitrile]
[1]
  pIC50: 7.64

## O=C(COc1ccc(-c2ncco2)nc1Cl)N1CCc2nc3sc(C4CC4)nn3c2C1c1ccc(Cl)cc1F (stereo not shown) [Example 4.1.3, 1-(5-(4-chloro-2-fluorophenyl)-2-cyclopropyl-7,8-dihydro-[1,3,4]thiadiazolo[2′,3′:2,3]imidazo[4,5-c]pyridin-6(5H)-yl)-2-((2-chloro-6-(oxazol-2-yl)pyridin-3-yl)oxy)ethanone]
[1]
  pIC50: 7.89

## CN1CCN(c2ccc(OCC(=O)N3CCc4nc5sc(C6CC6)nn5c4C3c3ccc(Cl)cc3F)c(Cl)n2)CC1 (stereo not shown) [Example 4.1.4, 1-(5-(4-chloro-2-fluorophenyl)-2-cyclopropyl-7,8-dihydro-[1,3,4]thiadiazolo[2′,3′:2,3]imidazo[4,5-c]pyridin-6(5H)-yl)-2-((2-chloro-6-(4-methylpiperazin-1-yl)pyridin-3-yl)oxy)ethanone]
[1]
  pIC50: 7.92

## CS(=O)(=O)Nc1ccc(OCC(=O)N2CCc3nc4sc(C(F)(F)F)nn4c3C2c2ccc(Cl)cc2F)c(Cl)n1 (stereo not shown) [Example 5.1.1, N-(6-chloro-5-(2-(5-(4-chloro-2-fluorophenyl)-2-(trifluoromethyl)-7,8-dihydro-[1,3,4]thiadiazolo-[2′,3′:2,3]imidazo[4,5-c]pyridin-6(5H)-yl)-2-oxoethoxy)pyridin-2-yl)methanesulfonamide]
[1]
  pIC50: 7.30

## CCc1nc(NS(C)(=O)=O)ccc1OCC(=O)N1CCc2nc3sc(C(F)(F)F)nn3c2C1c1ccc(Cl)cc1F (stereo not shown) [Example 5.1.2, N-(5-(2-(5-(4-chloro-2-fluorophenyl)-2-(trifluoromethyl)-7,8-dihydro-[1,3,4]thiadiazolo[2′,3′:2,3]imidazo[4,5-c]pyridin-6(5H)-yl)-2-oxoethoxy)-6-ethylpyridin-2-yl)methanesulfonamide]
[1]
  pIC50: 7.49

## CCc1nc(N2CCCS2(=O)=O)ccc1OCC(=O)N1CCc2nc3sc(C(F)(F)F)nn3c2C1c1ccc(Cl)cc1F (stereo not shown) [Example 5.1.3, 1-(5-(4-chloro-2-fluorophenyl)-2-(trifluoromethyl)-7,8-dihydro-[1,3,4]thiadiazolo[2′,3′:2,3]imidazo[4,5-c]pyridin-6(5H)-yl)-2-((6-(1,1-dioxidoisothiazolidin-2-yl)-2-ethylpyridin-3-yl)oxy)ethanone]
  pIC50: 8.00

## CCc1nc(N2CCCS2(=O)=O)ccc1OCC(=O)N1CCc2nc3sc(C(F)(F)F)nn3c2[C@@H]1c1ccc(Cl)cc1F [Example 5.1.4]
[1]
  pIC50: 8.15

## CCc1nc(N2CCCS2(=O)=O)ccc1OCC(=O)N1CCc2nc3sc(C(F)(F)F)nn3c2C1c1ncc(C)cc1F (stereo not shown) [Example 5.2.1, 2-((6-(1,1-dioxidoisothiazolidin-2-yl)-2-ethylpyridin-3-yl)oxy)-1-(5-(3-fluoro-5-methylpyridin-2-yl)-2-(trifluoromethyl)-7,8-dihydro-[1,3,4]thiadiazolo[2′,3′:2,3]imidazo[4,5-c]pyridin-6(5H)-yl)ethanone]
[1]
  pIC50: 7.89

## CCc1nc(NS(C)(=O)=O)ccc1OCC(=O)N1CCc2nc3sc(C(F)(F)F)nn3c2C1c1ncc(C)cc1F (stereo not shown) [Example 5.2.2, N-(6-ethyl-5-(2-(5-(3-fluoro-5-methylpyridin-2-yl)-2-(trifluoromethyl)-7,8-dihydro-[1,3,4]thiadiazolo[2′,3′:2,3]imidazo[4,5-c]pyridin-6(5H)-yl)-2-oxoethoxy)pyridin-2-yl)methanesulfonamide]
[1]
  pIC50: 7.38
